Here are results for 4 compounds from patent US4478842A, “N-Substituted-2-pyridylindoles” (Ciba-Geigy Corporation, priority 1982, dated 1984).

The subject of one experiment is thrombocytopenia. Nature of the experiment: variously induced thrombocytopenia. The note with it: in vivo.
The next experiment relates to platelet aggregation. Nature of the experiment: variously induced platelet aggregation. The text has this: (§1) Experimentally, prolongation of bleeding time in the rat is indicative of a beneficial antithrombotic effect.
Another experiment has as its system bleeding time. Nature of the experiment: prolongation of bleeding time in the rat. The experiment is classed as in vivo. The conditions noted are these: orally to rats, about 30 mg/kg.
Text: as §1

For another experiment, the system named is prostacyclin (PGI2). The experiment can be described thus: plasma level of prostacyclin (6-keto-PGF1α) in vivo (ionophore A23187 injected). The conditions noted are these: rat, oral dose 0.10 mg/kg or higher. How it is done: (§2) The inhibition of the synthesis and the reduction of plasma levels of thromboxane is determined in vivo on administration to rats in the following manner (as adapted from the procedures described by Tai et al. in Anal. Biochem. 87:343, 1978 and by Salmon in Prostaglandins 15:383, 1978):
(§3) Rats are dosed with vehicle or test drug and injected intravenously with ionophore A23187 (0.5 mg/kg) two hours later. Blood is collected for analysis 2 minutes after the ionophore injection. A single aliquot of each plasma sample is assayed for thromboxane B2 and another aliquot for 6-keto-PGF1 α, the stable metabolites of thromboxane A2 and prostacyclin (PGI2) respectively, by radioimmunoassay.

In experiment [1] the test system is arachidonic acid induced pulmonary obstruction. Nature of the experiment: protection against sudden death due to arachidonic acid induced pulmonary obstruction. The format is in vivo. The note with it: orally to mice, 100 mg/kg.
Another experiment concerns thromboxane B2. Nature of the experiment: reduction of plasma levels of thromboxane B2 in vivo (ionophore A23187 injected). The conditions noted are these: rat, oral dose as low as 0.10 mg/kg. The procedure:
as §2, §3

A further experiment has as its target T1, thromboxane synthetase (Homo sapiens, UniProt P24557).
T1 construct: crude microsomal preparation of thromboxane synthetase from lysed human platelets; from tissue; host or cells: human platelets (lysed), crude microsomal preparation
T1 sequence (P24557 1-533): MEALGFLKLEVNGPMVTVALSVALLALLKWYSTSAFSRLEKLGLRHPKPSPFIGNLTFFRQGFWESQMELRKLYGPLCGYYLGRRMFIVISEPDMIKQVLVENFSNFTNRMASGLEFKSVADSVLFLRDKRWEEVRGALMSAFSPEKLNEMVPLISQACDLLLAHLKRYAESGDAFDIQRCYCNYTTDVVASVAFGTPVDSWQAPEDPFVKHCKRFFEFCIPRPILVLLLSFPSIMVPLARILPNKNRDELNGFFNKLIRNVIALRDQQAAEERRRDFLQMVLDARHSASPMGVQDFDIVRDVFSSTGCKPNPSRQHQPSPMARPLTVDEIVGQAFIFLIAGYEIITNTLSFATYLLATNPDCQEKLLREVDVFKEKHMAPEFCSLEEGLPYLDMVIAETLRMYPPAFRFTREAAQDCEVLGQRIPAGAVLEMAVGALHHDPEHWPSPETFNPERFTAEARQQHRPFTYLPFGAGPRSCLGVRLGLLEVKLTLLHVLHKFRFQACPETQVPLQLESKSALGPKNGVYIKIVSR
Nature of the experiment: in vitro inhibition of the thromboxane synthetase enzyme (TxB2/PGF2α+β ratio). The format is biochemical. The conditions noted are these: 30 minutes incubation. How it is done: Res. Comm. 74, 1432 (1977); the testing procedure is as follows: ^14 C-Arachidonic acid is incubated with an enzyme consisting of solubilized and partially purified prostaglandin cyclo-oxygenase from sheep seminal vesicles and a crude microsomal preparation of thromboxane synthetase from lysed human platelets. The test compound (dissolved in buffer, or if necessary, in a small amount of ethanol) is added to the incubation medium. […] The radioactive zones are located; those corresponding to Thromboxane B2 (TxB2) and PGF2 α+β are transferred to liquid scintillation vials and counted. The ratio of counts for TxB2 /PGF2 α+β is calculated for each concentration of test compound and IC50 values are determined graphically as the concentration of test compound at which the ratio of TxB2 /PGF2 α+β is reduced to 50% of the control value.

Structures can show the parent of a compound that is named as a salt.

Take `Cc1c(-c2cccnc2)n(CCCCCCCC(=O)O)c2ccccc12` [Example 1, 1-(7-carboxyheptyl)-3-methyl-2-(3-pyridyl)indole]: the “inhibition of variously induced thrombocytopenia” value in the experiment on thrombocytopenia is “inhibits variously induced platelet aggregation and thrombocytopenia”. Besides, the “inhibition of variously induced platelet aggregation” value in the experiment with platelet aggregation was “inhibits variously induced platelet aggregation”. The “prolongation of bleeding time” value with bleeding time is “prolongs bleeding time”. The “plasma level of prostacyclin” value in the experiment with prostacyclin (PGI2) was “surprising increase”. For the same compound, the “protection against sudden death” value in experiment [1] was “protects against sudden death”.

`Cc1c(-c2cccnc2)n(CCCCCC(=O)O)c2ccc(Cl)cc12` [Example 7, 1-(5-carboxypentyl)-5-chloro-3-methyl-2-(3-pyridyl)indole]: in the experiment on thromboxane B2, the “decrease of the plasma concentration of thromboxane B2” value is reported as “over 50%”. Besides, the “plasma level of prostacyclin” value in the experiment on prostacyclin (PGI2) is listed as “surprising increase”.

For orientation: IC50 means the midpoint of a concentration-inhibition curve. As to `Cc1c(-c2cccnc2)n(CCOc2ccc(C(=O)O)cc2)c2ccccc12` [Example 20, 1-[2-(4-carboxyphenoxy)ethyl]-2-(3-pyridyl)-3-methylindole], the IC50 at thromboxane synthetase worked out at 0.026 µM.

For `Cc1c(-c2cccnc2)n(CCSc2ccc(C(=O)O)cc2)c2ccccc12` [Example 22, 1-[2-(4-carboxyphenylthio)ethyl]-2-(3-pyridyl)-3-methylindole hydrochloride], at thromboxane synthetase, the IC50 was 0.058 µM.
